Source: patent US7803910B2, “Soluble CD164 polypeptides” (Merck Serono S.A., priority 2005, dated 2010)

Key:
[1] = test system: peritoneal recruitment of macrophages; experiment: Thioglycollate-induced leukocyte peritoneal recruitment assay; type: in vivo, C3H mice; details: 1 mg/kg
Experimental: The effect of a sCD164 variant on immune cells recruitment was tested using the thioglycollate-induced leukocyte peritoneal recruitment assay. In this example the capacity of ssCD164-Fc (SEQ ID NO: 16) to decrease monocytes/macrophage recruitment was evaluated.
Forty-eight hours after the challenge, the animals were sacrificed and the lavage of the peritoneal cavity was conducted using 2×5 ml PBS-1 mM EDTA (+4° C.). After centrifugation (10 min at 3000 rpm), the pellet was resuspended in 1 ml PBS. The peritoneal cells were counted using a Beckman/Coulter counter. Dexamethasone (1 mg/kg), the anti-inflammatory compound was used as reference positive control.

C3H mice = experiment: Concanavalin A-induced hepatitis in mice; type: in vivo; details: 0.3 mg/kg, sc
Source text: Several sCD164 variants have been shown in vitro to inhibit secretion of certain cytokines by ConA-stimulated human peripheral blood mononuclear cells (PBMC), see Examples 2 and 3 above. Since cytokines play a crucial role in T-cell induced ConA induced liver hepatitis (Seino et al. 2001, Kusters, 1996; Toyonaga et al. 1994), the present model was used to further test the sCD164 variants.
Eighteen hours later, the animals were sacrificed and the blood was sampled. Serum levels of transaminases (alanine transaminase (ALAT), aspartate aminotransferase (ASAT)) were determined in serum using a clinical analyzer (Hitachi). Dexamethasone (0.3 mg/kg, sc) was used as reference.

[2] = test system: LPS-induced TNF-α release; experiment: LPS induced TNF-α release animal model (Example 10); type: in vivo, C3H/HeN mice; details: 0.1 mg/kg, sc, 15 minutes prior to LPS; plasma 90 minutes after LPS; p<0.001
Experimental: LPS(O111:B4; SIGMA) is injected (0.3 mg/kg, ip) in C3H/HeN mice (Charles River, France). Ninety minutes later blood is sampled and plasma TNF-α is determined using an ELISA kit (R&D). The CD164 variant to be tested and dexamethasone are diluted in PBS and injected (Sf-CD164 at 0.03, 0.1 and 0.3 mg/kg, iv; or dexamethasone at 0.1 mg/kg, sc) 15 minutes prior to LPS administration.

female mice (Balb/c) = experiment: Dextran Sodium Sulfate-induced ulcerative colitis model; type: in vivo
Experimental: The DSS model of colitis mimics some aspects of the human affection such as macrophage infiltration and up regulation of inflammatory cytokines (i.e. TNFα, IL-1p, IL-6) in the colon mucosa.
Ulcerative colitis (UC) was induced in female mice (Balb/c, 20-22 g, Elevage Janvier) by Dextran Sodium Sulfate (DSS 4%) administered in drinking water (oral route). The mice had free access to DSS during 7 days. Body weight was determined daily. The severity of the UC was assessed by a clinical score estimating the constituency of the stool (0=firm, 1=loose, 2=diarrhea) and the presence of blood (0=no blood, 1=occult blood, 2=gross rectal bleeding). Seven days after the induction of the disease, the animals were sacrificed. The length and the weight of the colon were determined and the ratio Weight/Length/100 g body weight was calculated. The spleen weight was also determined. Blood was sampled to determine serum amyloid protein (SAA) using a specific ELISA.
Test substances or vehicle (PBS/0.02% BSA) was administered at days 3, 4, 5 and 6 after the induction of the UC. Enbrel® (1 mg/kg, sc) was used as reference compound. Three studies were performed as per the following table:
In Study 3, the content of IL-1β in the colon was also measured.

Balb/c mice = experiment: K/BxN serum transfer model of arthritis; type: in vivo; details: 10 mg/kg sc once daily, 3 days per week
Experimental: This is a passive model of arthritis, induced by serum transfer of K/B×N mice (spontaneously develop arthritis) to naïve mice. This model depends on macrophages and neutrophils. Inflammatory cytokines such as TNFα and IL-1β play an important role in the development of the disease.
Eight week old Balb/c mice (Charles River) received by iv route 150 μl of K/B×N serum (Charles McKay, Australia), containing high level of auto-antibodies against glucose-6-phosphate isomerase. They evolved severe arthritis assessed with a clinical score (0-12) evaluating the presence of swelling, erythema, edema, joint rigidity and ankylosis. The final score was the sum of scores on individual paws. The swelling of ankle, fore paw and hind paw was measure using a caliper. The clinical score and the swelling were determined every day. Fourteen days after the induction of the disease blood was sampled to determine osteocalcin and the legs were removed and fixed in formalin for histology.
Enbrel® (10 mg/kg, sc, once daily, 3 days a week) was used as reference compound.

[3] = Study 1, reference 1 mg/kg, ip (so in the source)

C[C@@H]1C[C@H]2[C@@H]3CCC4=CC(=O)C=C[C@]4(C)[C@@]3(F)[C@@H](O)C[C@]2(C)[C@@]1(O)C(=O)CO [Dexamethasone, reference compound]
reduction of peritoneal recruitment of macrophages ([1]; iv): 94% | reduction of peritoneal recruitment of macrophages ([1]; sc): 61% | reduction of the level of serum transaminases (C3H mice): 96% | inhibition of LPS-induced TNF-α release [2]: 72%

Enbrel® [reference compound]
body weight loss (female mice (Balb/c); [3]): not prevented | colon reduction, length (female mice (Balb/c); [3]): −24% | colon reduction, ratio weight/length (female mice (Balb/c); [3]): −29% | increase in serum amyloid protein A (female mice (Balb/c); [3]): −37% | splenomegaly (female mice (Balb/c); [3]): not prevented | clinical score (female mice (Balb/c); Study 1, reference 1 mg/kg, ip (so in the source), day 6): −23% | colon reduction, length (female mice (Balb/c); Study 2, 1 mg/kg, sc): −17% | colon reduction, ratio weight/length (female mice (Balb/c); Study 2, 1 mg/kg, sc): −31% | increase in serum amyloid protein A (female mice (Balb/c); Study 2, 1 mg/kg, sc): −36% | splenomegaly (female mice (Balb/c); Study 2, 1 mg/kg, sc): not improved | clinical score (female mice (Balb/c); Study 2, 1 mg/kg, sc, day 5): −21% | colon reduction, length (female mice (Balb/c); Study 3, 1 mg/kg, sc): −29% | colon reduction, ratio weight/length (female mice (Balb/c); Study 3, 1 mg/kg, sc): −33% | content of IL-1β in colon (female mice (Balb/c); Study 3, 1 mg/kg, sc): trended to reduce | serum amyloid A protein (female mice (Balb/c); Study 3, 1 mg/kg, sc): trended to reduce | splenomegaly (female mice (Balb/c); Study 3, 1 mg/kg, sc): −27% | body weight loss (female mice (Balb/c); Study 3, 1 mg/kg, sc, day 5): −83% | clinical score (female mice (Balb/c); Study 3, 1 mg/kg, sc, day 5): −38% | clinical score (female mice (Balb/c); Study 3, 1 mg/kg, sc, day 7): −30% | decrease of clinical score (Balb/c mice; Study 1): 25% | decrease of paw swelling (Balb/c mice; Study 1): 36% | decrease of serum osteocalcin (Balb/c mice; Study 1): 86% | decrease of clinical score (Balb/c mice; Study 2): 31% | decrease of paw swelling (Balb/c mice; Study 2): 38% | decrease of serum osteocalcin (Balb/c mice; Study 2): 64%
